From patent US10953012B2, “Heterocyclic compounds for the inhibition of pask” (BioEnergenix LLC, priority 2011, dated 2021)

Tests used:
[1] = target: CK2a2 (Homo sapiens (Human), UniProt P19784); test: Biochemical Assay for CK2 Activity; conditions: 33P-ATP radiochemical assay; read-out: IC50 CK2 a2
Experimental: Biochemical Assay for CK2 Activity
Purified CK2a2 (NP_001887; human full-length protein, GST tagged) from insect cells (final concentration 1.2 nM) is added to freshly prepared Base Reaction Buffer containing 20 mM Hepes (pH 7.5), 10 mM MgCl2, 1 mM EGTA, 0.02% Brij35, 0.02 mg/ml BSA, 0.1 mM Na3VO4, 2 mM DTT, 1% DMSO and CK2 sub [RRRDDDSDDD] (20 μM final). Test compounds in DMSO are then added and the mixture, followed by delivery of ^33P-ATP (specific activity 0.01 μCi/μl final) to initiate the reaction. The kinase reaction is incubated for 120 min at room temperature. The entire reaction mixture is washed through onto a P81 Phosphocellulose paper and washed three times for 10 minutes in 75 mM phosphoric acid and once in methanol prior to drying and scintillation counting.

[2] = target: PASK (Homo sapiens (Human), UniProt Q96RG2); test: PAS Kinase FRET Assay; assay type: biochemical; conditions: TR-FRET assay; read-out: IC50 Kinase Domain
PASK (Homo sapiens (Human), UniProt Q96RG2), sequence (Q96RG2 999-1251): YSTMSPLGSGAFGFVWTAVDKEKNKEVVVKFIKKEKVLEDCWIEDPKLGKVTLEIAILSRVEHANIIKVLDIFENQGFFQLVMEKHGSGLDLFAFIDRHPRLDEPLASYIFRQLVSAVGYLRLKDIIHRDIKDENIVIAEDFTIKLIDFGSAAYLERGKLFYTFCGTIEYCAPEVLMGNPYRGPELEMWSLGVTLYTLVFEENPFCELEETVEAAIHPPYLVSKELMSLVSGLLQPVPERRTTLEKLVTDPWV
Procedure, shortened: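 Reaction buffer: 50 mM HEPES, 10 mM MgCl2, 1 mM EGTA, 2 mM DTT, 0.01% Tween-20. Test compounds (eleven-point series prepared at 4× final) preceded PASK and substrate/ATP. Reaction ran 2 h at 25 °C in the dark, then stopped. Phospho-ULight peptide detected by Eu-antibody TR-FRET, 665/615 nm ratio.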

[3] = target: PASK (UniProt #Q96RG2; residues 879-1323) (Homo sapiens (Human), UniProt Q96RG2); test: PASK ATP Radiochemical Assay; assay type: biochemical; conditions: 33P-ATP radiochemical assay; read-out: IC50 Kinase Domain
PASK (UniProt #Q96RG2; residues 879-1323) (Homo sapiens (Human), UniProt Q96RG2), sequence (Q96RG2 879-1323): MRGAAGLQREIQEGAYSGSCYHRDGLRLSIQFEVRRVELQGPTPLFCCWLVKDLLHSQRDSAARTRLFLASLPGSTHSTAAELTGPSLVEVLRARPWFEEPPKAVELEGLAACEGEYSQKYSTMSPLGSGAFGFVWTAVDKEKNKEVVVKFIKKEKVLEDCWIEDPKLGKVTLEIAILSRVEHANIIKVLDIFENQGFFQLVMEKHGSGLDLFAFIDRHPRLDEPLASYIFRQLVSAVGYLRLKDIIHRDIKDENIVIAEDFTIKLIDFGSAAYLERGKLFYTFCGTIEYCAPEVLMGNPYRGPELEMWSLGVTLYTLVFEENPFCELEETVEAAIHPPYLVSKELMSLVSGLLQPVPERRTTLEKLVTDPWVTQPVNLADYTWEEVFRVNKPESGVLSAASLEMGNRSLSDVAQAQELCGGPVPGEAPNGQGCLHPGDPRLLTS
Experimental: PASK ATP Radiochemical Assay Purified PASK (UniProt #Q96RG2; human recombinant N-terminal GST tagged construct, residues 879-1323) from insect cells (final concentration 5 nM) is added to freshly prepared Base Reaction Buffer containing 20 mM HEPES (pH 7.5), 10 mM MgCl2, 1 mM EGTA, 0.02% Brij35, 0.02 mg/ml BSA, 0.1 mM Na3VO4, 2 mM DTT, 1% DMSO and Myelin Basic Protein (20 μM final). Test compounds in DMSO are then added and the mixture, followed by delivery of ^33P-ATP (specific activity 0.01 μCi/μl final) to initiate the reaction. The kinase reaction is incubated for 120 min at room temperature. The entire reaction mixture is washed through onto a P81 Phosphocellulose paper and washed three times for 10 minutes in 75 mM phosphoric acid and once in methanol prior to drying and scintillation counting.

CK2a2, sequence (P19784 whole entry): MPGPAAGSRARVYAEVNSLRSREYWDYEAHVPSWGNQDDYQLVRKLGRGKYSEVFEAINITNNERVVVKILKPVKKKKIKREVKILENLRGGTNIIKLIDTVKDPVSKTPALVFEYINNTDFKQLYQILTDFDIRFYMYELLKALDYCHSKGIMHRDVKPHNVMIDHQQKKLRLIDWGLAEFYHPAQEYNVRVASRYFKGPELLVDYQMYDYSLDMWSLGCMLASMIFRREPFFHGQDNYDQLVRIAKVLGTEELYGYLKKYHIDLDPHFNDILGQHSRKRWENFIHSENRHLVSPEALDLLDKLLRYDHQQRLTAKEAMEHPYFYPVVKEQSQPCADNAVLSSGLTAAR

Row | SMILES | IC50 [1] [µM] | IC50 [2] [µM] | IC50 [3] [µM]
1 | COc1ccc(-c2cc(=O)n3ncc(-c4ccc(F)cc4)c3[nH]2)cc1 [Example 53, 3-(4-Fluorophenyl)-5-(4-methoxyphenyl)pyrazolo[1,5-a]pyrimidin-7(4H)-one] | ≤ 10 | – | –
2 | Cc1nn2c(=O)cc(-c3ccc4c(c3)OCCO4)[nH]c2c1-c1ccccc1 [Example 54, 5-(2,3-Dihydrobenzo[b][1,4]dioxin-6-yl)-2-methyl-3-phenylpyrazolo[1,5-a]pyrimidin-7(4H)-one] | ≤ 10 | – | –
3 | Cc1nn2c(=O)cc(-c3ccc4c(c3)CCO4)[nH]c2c1-c1ccccc1 [Example 55, 5-(2,3-Dihydrobenzofuran-5-yl)-2-methyl-3-phenylpyrazolo[1,5-a]pyrimidin-7(4H)-one] | ≤ 10 | – | –
4 | COc1ccc(-c2cc(=O)n3ncc(-c4ccccn4)c3[nH]2)cc1 [Example 56, 5-(4-Methoxyphenyl)-3-(pyridin-2-yl)pyrazolo[1,5-a]pyrimidin-7(4H)-one] | ≤ 10 | – | –
5 | Cc1nn2c(=O)cc(-c3ccccc3)[nH]c2c1Cc1ccc(Cl)cc1 [Example 61] | ≤ 10 | – | –
6 | Cc1nn2c(=O)cc(-c3ccc(OC(C)C)cc3)[nH]c2c1Cc1ccc(Cl)cc1 [Example 63, 3-(4-Chlorobenzyl)-5-(4-isopropoxyphenyl)-2-methylpyrazolo[1,5-a]pyrimidin-7(4H)-one] | ≥ 10 | – | –
7 | COc1cccc(-c2cc(=O)n3nc(C)c(Cc4ccc(Cl)cc4)c3[nH]2)c1 [Example 64, 3-(4-Chlorobenzyl)-5-(3-methoxyphenyl)-2-methylpyrazolo[1,5-a]pyrimidin-7(4H)-one] | ≥ 10 | – | –
8 | COC(=O)c1ccc(-c2cc(=O)n3nc(C)c(Cc4ccc(Cl)cc4)c3[nH]2)cc1 [Example 65, Methyl 4-(3-(4-chlorobenzyl)-2-methyl-7-oxo-4,7-dihydropyrazolo[1,5-a]pyrimidin-5-yl)benzoate] | ≥ 10 | – | –
9 | Cc1nn2c(=O)cc(-c3ccc(C(N)=O)cc3)[nH]c2c1Cc1ccc(Cl)cc1 [Example 66, 4-(3-(4-Chlorobenzyl)-2-methyl-7-oxo-4,7-dihydropyrazolo[1,5-a]pyrimidin-5-yl)benzamide] | ≥ 10 | – | –
10 | Cc1nn2c(=O)cc(-c3ccc(C(F)(F)F)cc3)[nH]c2c1Cc1ccc(Cl)cc1 [Example 67, 3-(4-Chlorobenzyl)-2-methyl-5-(4-(trifluoromethyl)phenyl)pyrazolo[1,5-a]pyrimidin-7(4H)-one] | ≥ 10 | – | –
11 | COc1ccc(-c2cc(=O)n3nc(C)c(Cc4ccccc4)c3[nH]2)cc1OC [Example 68, 3-Benzyl-5-(3,4-dimethoxyphenyl)-2-methylpyrazolo[1,5-a]pyrimidin-7(4H)-one] | ≥ 10 | – | –
12 | COc1ccc(-c2cc(=O)n3nc(C)c(Cc4ccc(Cl)cc4)c3[nH]2)cc1OC [Example 69, 3-(4-Chlorobenzyl)-5-(3,4-dimethoxyphenyl)-2-methylpyrazolo[1,5-a]pyrimidin-7(4H)-one] | ≥ 10 | – | –
13 | COc1ccc(-c2cc(=O)n3nc(C)c(Cc4ccccc4Cl)c3[nH]2)cc1 [Example 70, 3-(2-Chlorobenzyl)-5-(4-methoxyphenyl)-2-methylpyrazolo[1,5-a]pyrimidin-7-(4H)-one] | ≥ 10 | ≤ 10 | –
14 | CCCc1c(C)nn2c(=O)cc(-c3ccc(OC)cc3)[nH]c12 [Example 71, 5-(4-Methoxyphenyl)-2-methyl-3-propylpyrazolo[1,5-a]pyrimidin-7(4H)-one] | ≥ 10 | ≤ 10 | ≤ 10
15 | COc1ccc(-c2cc(=O)n3ncc(-c4cccnc4)c3[nH]2)cc1 [Example 72, 5-(4-Methoxyphenyl)-3-(pyridin-3-yl)pyrazolo[1,5-a]pyrimidin-7(4H)-one] | ≤ 10 | ≤ 10 | ≤ 10
16 | Cc1nn2c(=O)cc(-c3ccc4ncccc4c3)[nH]c2c1Cc1ccccc1 [Example 73, 3-Benzyl-2-methyl-5-(quinolin-6-yl)pyrazolo[1,5-a]pyrimidin-7(4H)-one] | ≤ 10 | ≤ 10 | ≤ 10

Row | SMILES | IC50 [1] [µM] | IC50 [2] [µM] | IC50 [3] [µM]
17 | Cc1nn2c(=O)cc(-c3ccc4c(c3)OCO4)[nH]c2c1Cc1cccc(Cl)c1 [Example 75, 3-(3-Chlorobenzyl)-5-(benzo[d][1,3]dioxol-5-yl)-2-methylpyrazolo[1,5-a]pyrimidin-7(4H)-one] | ≤ 10 | ≤ 10 | ≤ 10
18 | Cc1nn2c(=O)cc(-c3ccc4c(c3)OCO4)[nH]c2c1Cc1ccc(Cl)cc1 [Example 76, 3-(4-Chlorobenzyl)-5-(benzo[d][1,3]dioxol-5-yl)-2-methylpyrazolo[1,5-a]pyrimidin-7(4H)-one] | ≤ 10 | ≤ 10 | ≤ 10
19 | Cc1nn2c(=O)cc(-c3cccnc3)[nH]c2c1-c1ccc(F)cc1 [Example 77, 3-(4-Fluorophenyl)-2-methyl-5-(pyridin-3-yl)pyrazolo[1,5-a]pyrimidin-7(4H)-one] | ≤ 10 | – | ≤ 10
20 | O=c1cc(-c2ccccn2)[nH]c2c(-c3ccc(F)cc3)cnn12 [Example 79, 3-(4-Fluorophenyl)-5-(pyridin-2-yl)pyrazolo[1,5-a]pyrimidin-7(4H)-one] | ≤ 10 | – | ≤ 10
21 | O=c1cc(-c2ccc3c(c2)OCCO3)[nH]c2c(-c3ccc(N4CCCCC4)nc3)cnn12 [Example 89, 5-(2,3-Dihydrobenzo[b][1,4]dioxin-6-yl)-3-(6-(piperidin-1-yl)pyridin-3-yl)pyrazolo[1,5-a]pyrimidin-7(4H)-one] | ≤ 10 | ≤ 10 | –
22 | O=c1cc(-c2ccc3c(c2)OCCO3)[nH]c2c(-c3cccc(F)c3)cnn12 [Example 91, 5-(2,3-Dihydrobenzo[b][1,4]dioxin-6-yl)-3-(3-fluorophenyl)pyrazolo[1,5-a]pyrimidin-7(4H)-one] | ≤ 10 | ≤ 10 | –
23 | O=c1cc(-c2cc3ccccc3o2)[nH]c2c(-c3ccccn3)cnn12 [Example 93, 5-(Benzofuran-2-yl)-3-(pyridin-2-yl)pyrazolo[1,5-a]pyrimidin-7(4H)-one] | – | ≤ 10 | ≤ 10
24 | O=c1cc(-c2ccc3cc[nH]c3c2)[nH]c2c(-c3ccccc3)cnn12 [Example 95, 5-(1H-Indol-6-yl)-3-phenylpyrazolo[1,5-a]pyrimidin-7(4H)-one] | ≤ 10 | – | ≤ 10
25 | O=c1cc(-c2ccc3c(c2)OCCO3)[nH]c2c(-c3cccnc3)c(O)nn12 [Example 101, 5-(2,3-Dihydrobenzo[b][1,4]dioxin-6-yl)-2-hydroxy-3-(pyridin-3-yl)pyrazolo[1,5-a]pyrimidin-7(4H)-one] | ≤ 10 | ≤ 10 | –
26 | O=c1cc(-c2cc3ccccc3o2)[nH]c2c(-c3ccccn3)cnn12 [Example 149, 5-(Benzofuran-2-yl)-3-(pyridin-2-yl)pyrazolo[1,5-a]pyrimidin-7(4H)-one] | ≤ 10 | – | –
27 | COc1c(-c2cc(=O)n3nc(C)c(-c4ccccn4)c3[nH]2)ccc2[nH]nnc12 [Example 248, 5-(4-Methoxy-1H-benzo[d][1,2,3]triazol-5-yl)-2-methyl-3-(pyridin-2-yl)pyrazolo[1,5-a]pyrimidin-7(4H)-one] | – | ≤ 10 | –
28 | CC(C)Oc1c(-c2cc(=O)n3ncc(-c4ccccn4)c3[nH]2)ccc2c1OCO2 [Example 250, 5-(4-Isopropoxybenzo[d][1,3]dioxol-5-yl)-3-(pyridin-2-yl)pyrazolo[1,5-a]pyrimidin-7(4H)-one] | – | ≤ 10 | –
29 | Cc1nn2c(=O)cc(-c3ccc4c(c3OC(C)C)OCO4)[nH]c2c1-c1ccccn1 [Example 251, 5-(4-Isopropoxybenzo[d][1,3]dioxol-5-yl)-2-methyl-3-(pyridin-2-yl)pyrazolo[1,5-a]pyrimidin-7(4H)-one] | – | ≤ 10 | –
30 | CNC(=O)Oc1ccc(-c2cc(=O)n3nc(C)c(-c4ccccn4)c3[nH]2)cc1 [Example 252, 4-(2-Methyl-7-oxo-3-(pyridin-2-yl)-4,7-dihydropyrazolo[1,5-a]pyrimidin-5-yl)phenyl methylcarbamate] | – | ≤ 10 | –
31 | CNC(=O)Oc1ccc(-c2cc(=O)n3ncc(-c4ccccn4)c3[nH]2)cc1 [Example 253, 4-(7-Oxo-3-(pyridin-2-yl)-4,7-dihydropyrazolo[1,5-a]pyrimidin-5-yl)phenyl methylcarbamate] | – | ≤ 10 | –
32 | O=c1cc(-c2ccc(-c3nnco3)cc2)[nH]c2c(-c3ccccn3)cnn12 [Example 255, 5-(4-(1,3,4-Oxadiazol-2-yl)phenyl)-3-(pyridin-2-yl)pyrazolo[1,5-a]pyrimidin-7(4H)-one] | – | ≤ 10 | –
